Series [1] deals with set of four target proteins (calcineurin-calmodulin) adsorbed on GFK-FK506. Nature of the series: Competitive binding / elution of target proteins from glutathione-Sepharose-immobilized GFK-FK506. On the set-up: species or system bovine. Here is the method:
A competitive binding experiment was carried out with recombinant FKBP12 and cyclophilin A (Standaert et al., 1990, supra, Lui et al., 1990, Proc. Natl. Acad. Sci. 87:2304) and their respective drug complexes. After the set of four target proteins were adsorbed onto the glutathione Sepharose affinity matrix, elution was attempted with immunophilins, the drugs, or the immunophilin-drug complexes. The set of four proteins were eluted from glutathione-sepharoseimmobilized GFK-FK506 with both recombinant complexes. In contrast, these proteins were not eluted by free immunophilins or unbound drugs.
To further test the importance of divalent metal ions for interaction between immunophilin-drug complexes and target proteins, the adsorption experiment was performed in the presence of the Ca^2+ chelator EGTA.

For the next series, the target named is T1, calcineurin (Bos taurus, UniProt P48452+P63099).
T1 construct: Bovine brain calcineurin and calmodulin were purchased from Sigma Chemical; purchased Sigma Chemical (St. Louis, Mo.); also a gift from Dr. Claude B. Klee; host or cells: bovine brain
Nature of the series: Calcineurin phosphatase assay with 32P-phosphopeptide (RII subunit) substrate. Type of series: biochemical, bovine. The conditions noted are these: in the presence or absence of calmodulin; Ca2+. Here is the method:
Calcineurin is known to be a Ca^2+, calmodulin-dependent protein phosphatase (Stewart et al., 1982, FEBS. Lett. 137:80). Using a phosphorylated peptide fragment from the regulatory subunit of cAMP-dependent kinase as a substrate, the phosphatase activity of the calcineurin was assayed in the presence of the immunophilins, the individual drugs, and their respective complexes with or without calmodulin.
Calcineurin phosphatase assays were carried out essentially as described previously (Manalan et al. 1983, Proc. Natl. Acad. Sci. USA 80:4291) with minor modifications. The substrate used was a synthetic peptide corresponding to the phosphorylation site of the RII subunit of cyclic AMP-dependent protein kinase […] (Sequence I.D. No. 1), which was phosphorylated with ^32 p-labeled ATP at the serine residue. The assay buffer consists of 40 mM TrisHCl (pH 7.5), 0.1 M NaCl, 6 mM MgCl2, 0.1 mM CaCl2, 0.1 mg/mL bovine serum albumin, and 0.5 mM dithiothreitol. The assay mixture (60 μl) contained 40 nM calcineurin, and 80 nM calmodulin (when present), and 2 μM phosphopeptide in addition to the assay buffer. […] Therefore, the drug solutions were prepared in DMSO as follows. DMSO stock solutions of the drugs were prepared (3000×final concentration) and then diluted 100×with the assay buffer. 2 μL was added to the incubation mixture giving a final concentration of DMSO of less than 0.04% in the final assay mixture. The incubations were carried out at 30° C. for 10 min before the reaction was stopped by addition of the stop solution (5% trichloroacetic acid, 0.1 M potassium phosphate) and loaded onto 0.5 ml Dowex AG 50W-X8 (200-800 mesh, Bio-Rad) columns. After the [^32 P]-inorganic phosphate was eluted from the column, it was mixed with 12 ml of ScintiVerse II (Fisher Scientific) and counted on a Beckman LS1801 Liquid Scintillation Systems. Bovine brain calcineurin and calmodulin were purchased from Sigma Chemical (St. Louis, Mo.). ^32 P-labeled phosphorylated peptide substrate, bovine brain calcineurin, and rabbit anti-calcineurin IgG were generous gifts from Dr. Claude B. Klee (National Cancer Institute, Department of Biochemistry). Goat-anti-rabbit IgG conjugated with alkaline phosphatase and the alkaline phosphatase substrates (BCIP and NBT) were obtained from Pierce (Rockford, ILL.). Glutathione Sepharose 4B was from Pharmacia LKB (Uppsala, Sweden). 506BD was prepared by Thomas J. Wandless and Patricia K. Somers in the Harvard laboratory.

For series [2], the target named is T2, calcineurin-Ca2+/calmodulin (Bos taurus, UniProt P48452+P63099).
T2 construct: Bovine brain calcineurin and calmodulin were purchased from Sigma Chemical; purchased Sigma Chemical (St. Louis, Mo.); also a gift from Dr. Claude B. Klee; host or cells: bovine brain
Nature of the series: Calcineurin phosphatase assay with para-nitrophenyl phosphate. The settings on record: Ca2+ and calmodulin present. Format: biochemical, bovine. The source says: The small para-nitrophenyl phosphate reagent presumably interacts with calcineurin nearly exclusively via active site residues, whereas the phosphopeptide, which is comprised of a sequence derived from the phosphorylation site on the RII subunit of cyclic AMP-dependent protein kinase (a calcineurin substrate) (Blumenthal et al., 1986, J. Biol. Chem 261:8140), is presumed to make extensive contact with the enzyme.

Series [3] concerns proteins of Mr 61,000, 57,000, 17,000, and 15,000 from calf thymus (calcineurin A, calcineurin B, calmodulin). Nature of the series: Glutathione Sepharose adsorption of target proteins from tissue extracts by immunophilin-drug affinity matrices. Type of series: binding, bovine. The conditions noted are these: calf thymus extract; Ca2+ and Mg2+ in incubation buffer. Here is the method:
Several factors were taken into account in the design of the first glutathione-Sepharose adsorption experiment. […] In addition, in some experiments, a homobifunctional cross-linking reagent, dimethyl 3,3'-dithiobispropionimidate (DTBP) (Wang et al. 1974, J. Biol. Chem. 249:8005) was added to the incubation mixture to retain target proteins whose affinity for immunophilin or immunophilin-drug complex was not sufficient to withstand the washes following adsorption of the complex to the solid phase.
Adsorption of calcineurin-calmodulin with GFK-FK506 using glutathione Sepharose was performed as follows. Crude tissue extracts, fresh bovine calf brain, thymus, or spleen (Research 87, Revere, MA), were homogenized (1:3 W/V) in 20 mM Tris HCl (pH 6.8), 0.25 mM NaCl, 2 mM β-mercaptoethanal, 0.02% NaN3, 1 mM PMSF, and 5% glycerol. The homogenate was centrifuged at 8,000×g for 4 h. The supernatant was separated and the pellet was resuspended in an equal volume of the same buffer. Centrifugation at 8,000 ×g for 4 h gave a second supernatant. The two supernatants were mixed (1:1 v/v) and centrifuged at 30,000×g for 45 min. The supernatant was then filtered through a 0.45 μm filter and kept at 4° C. before use.
The crude tissue extracts were pre-incubated with glutathione Sepharose (about 1:100 to 1:200 dilution of the sepharose) at 4° C. for 1-3 h to remove the endogenous glutathione binding proteins, including glutathione S-transferases. […] After incubation at 4° C. on a nutator for 1.5 h, 25 μL of 50% (V/V) glutathione Sepharose in buffer A was added and incubation was continued for an additional 0.5 to 2 h. The Sepharose beads were precipitated by centrifugation on a microcentrifuge at 5,000×g for 2 min. The glutathione Sepharose beads were washed three times with 0.5 mL buffer A containing 0.2% Triton X-100. The washed glutathione Sepharose was then resuspended in 25 μL of 2× SDS sample buffer, heated in boiling water for 3 min, and centrifuged for 2 min. The supernatant was subjected to SDS-PAGE followed by silver staining. […]

Series [4] relates to T-cell receptor-mediated signaling pathway. The conditions noted are these: cited from earlier work.

Entries after “also recorded” stand apart in the source; their conditions may differ.

T1 sequence (P63099 2-170 limits assumed, other chains not shown): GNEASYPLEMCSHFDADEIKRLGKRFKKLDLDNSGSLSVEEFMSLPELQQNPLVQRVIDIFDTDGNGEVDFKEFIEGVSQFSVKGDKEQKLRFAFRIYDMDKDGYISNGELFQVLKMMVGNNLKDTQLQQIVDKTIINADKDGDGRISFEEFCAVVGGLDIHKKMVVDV

For the compound `O=C(O)CN(CCOCCOCCN(CC(=O)O)CC(=O)O)CC(=O)O` [EGTA], the “elution of the four target proteins from the immobilized immunophilin-drug matrix” value in series [1] is on record as “able to effectively elute; also recorded: capable of eluting”.

Turning to “FKBP12: recombinant human immunophilin binding FK506 and rapamycin”, in the series with calcineurin, the “effect on phosphatase activity of calcineurin towards the phosphopeptide substrate” value is reported as “no effect”. In series [2], the “effect on phosphatase activity of calcineurin towards para-nitrophenyl phosphate” value is reported as “no effect”. Also, the “retention/adsorption of the Mr 61,000, 57,000, 17,000 and 15,000 proteins by the affinity matrix” value (shortened to “retention/adsorption”) in series [3] is reported as “do not retain”.

As for `CO[C@H]1C[C@@H]2CC[C@@H](C)[C@@](O)(O2)C(=O)C(=O)N2CCCC[C@H]2C(=O)O[C@H]([C@H](C)C[C@@H]2CC[C@@H](O)[C@H](OC)C2)CC(=O)[C@H](C)/C=C(\C)[C@@H](O)[C@@H](OC)C(=O)[C@H](C)C[C@H](C)/C=C/C=C/C=C/1C` [rapamycin], on calcineurin, the “effect on phosphatase activity of calcineurin towards the phosphopeptide substrate” value is recorded as “no effect”. For the same compound, the “inhibition of TCR-mediated signaling” value in series [4] (previous observations) is recorded as “inhibits different, calcium-independent signaling pathways”. Also, the “effect on phosphatase activity of calcineurin towards para-nitrophenyl phosphate” value in series [2] is “no effect”. Further, the “retention/adsorption” value in series [3] is “do not retain”.

Take “cyclophilin A: recombinant human immunophilin which complexes with cyclosporine A”: the “effect on phosphatase activity of calcineurin towards the phosphopeptide substrate” value with calcineurin was “no effect”. Also, the “effect on phosphatase activity of calcineurin towards para-nitrophenyl phosphate” value in series [2] is listed as “no effect”.

On to `C=CC[C@@H]1/C=C(\C)C[C@H](C)C[C@H](OC)[C@H]2O[C@@](O)(C(=O)C(=O)N3CCCC[C@H]3C(=O)O[C@H](/C(C)=C/[C@@H]3CC[C@@H](O)[C@H](OC)C3)[C@H](C)[C@@H](O)CC1=O)[C@H](C)C[C@@H]2OC` [FK506], for which the “effect on phosphatase activity of calcineurin towards the phosphopeptide substrate” value on calcineurin is given as “no effect”. Further, in series [4] (lower concentrations than CsA), the “concentration needed to interfere with T-cell receptor-mediated signaling, relative to CsA” value is 100 fold. In series [2], the “effect on phosphatase activity of calcineurin towards para-nitrophenyl phosphate” value is “no effect”. Further, in series [3], the “retention/adsorption” value was “do not retain”.

Source of the values: patent publication US5362629A, “Detection of immunosuppressants” (President and Fellows of Harvard College, priority 1991, dated 1994).
